The values that follow are results of earlier work, collected in US8846083B2, “Method for the diffusion of molecules which are insoluble in an aqueous medium and composition using said method” (priority 2004, dated 2014).

For data set [1] the following is noted: administered via the digestive tract.
For data set [2] the following is noted: administered via the digestive tract. This is another data set of the same source.

For the compound `CC(C)Cc1ccc(C(C)C(=O)O)cc1` (stereo not shown) [ibuprofen], the “time at which the maximum concentration of the active ingredient in the blood is reached” value in data set [1] is 90 min. Further, the “duration of pharmacological effects” value in data set [2] is given as “approximately 2 hour”.
Turning to `CC(C(=O)O)c1cccc(C(=O)c2ccccc2)c1` (stereo not shown) [ketoprofen], the “time at which the maximum concentration of the active ingredient in the blood is reached” value in data set [1] is 75 min. Further, the “duration of pharmacological effects” value in data set [2] is recorded as 1.5 hour.
